Common to all, as to format: cell-based
One assay concerns the target T1, KRAS (Homo sapiens, UniProt P01116).
T1 construct: endogenous in cells; host or cells: KE39 (KRAS amplified) cells
As to the kind of experiment: KRASamp MSD assay. The following applies: KE39 (KRAS amplified) cells, treated with test compounds for 24 hr, MSD readout of KRAS degradation. How it is done:
KE39 (KRAS amplified) cells were cultured in RPMI 1640 medium (Gibco, 11875093), seeded into 96 well plate and treated with test compounds for 24 hr. The cells were washed with PBS and lysed in plate for 1 hr at 4° C. with agitation in RIPA buffer (Cat No. BP-115D) supplemented with protease and phosphatase inhibitor cocktail. The lysates were loaded into MSD plate coated with KRAS capture antibody (LSBio, C175665, 1:1000) for 1 h at RT with agitation. The plate was then washed three times with TBST and incubated with KRAS detection antibody (Abcam, Ab275876. 1:2000) for 1 h at RT. After washing three times with TBST, the plate was incubated with secondary detection antibody GAR (1:500) for 1 hr at RT followed with 3×TBST washing. 2×MSD reading buffer was added into individual wells and the plate was finally read by MSD reader (MSD, SQ 120 MM). The recombinant WT KRAS protein was used for standard curve generation and protein quantification. The degradation activity was calculated using the following formula: […]
DC50 was calculated by fitting the curve using GraphPad Prism v8.0.2 (analysis 263): […]

The target in the next assay is T2, KRAS G12D (Homo sapiens, UniProt P01116, G12D).
T2 construct: AsPc-1-KRAS (G12D)-HiBit-KI cell (Pharmaron); host or cells: AsPc-1-KRAS (G12D)-HiBit-KI cells (HiBiT knock-in at the endogenous KRAS locus)
In words: KRAS G12D HiBit assay. The conditions noted are these: AsPc-1-KRAS (G12D)-HiBit-KI cell, compound treatment for 24 hours; for DC50: absolute DC50. The essentials: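 HiBiT luminescence, detected by adding lytic buffer, substrate and LgBiT protein, served as the KRAS G12D read-out. Compounds, serially diluted 3-fold over 10 points from 0.3 mM DMSO stock, were on cells for 24 h; percent inhibition normalized to cells given 0.1% DMSO only.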
In general terms: With HiBiT, luminescence reflects the tagged protein that the partner subunit can reach.

The next assay deals with T3, KRAS G12V (Homo sapiens, UniProt P01116, G12V).
T3 construct: SW620-KRAS (G12V)-HiBit-KI cell (Pharmaron); host or cells: SW620-KRAS (G12V)-HiBit-KI cells (HiBiT knock-in at the endogenous KRAS locus)
As to the kind of experiment: KRAS G12V HiBit assay. The following applies: SW620-KRAS (G12V)-HiBit-KI cells, compound treatment for 24 hours, class symbols. The essentials: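 Luminescence from lytic Nano-Glo HiBiT detection with LgBiT read KRAS G12V levels after 24 h compound exposure. Dilutions were 10-point, 3-fold, from a 0.3 mM DMSO stock. Degradation activity was normalised to cells given 0.1% DMSO alone.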

[1] abbreviates: numeric bounds given in place of class symbols.

The structures appear in SMILES notation.

T3 sequence (P01116 1-188 isoform P01116-2 G12V): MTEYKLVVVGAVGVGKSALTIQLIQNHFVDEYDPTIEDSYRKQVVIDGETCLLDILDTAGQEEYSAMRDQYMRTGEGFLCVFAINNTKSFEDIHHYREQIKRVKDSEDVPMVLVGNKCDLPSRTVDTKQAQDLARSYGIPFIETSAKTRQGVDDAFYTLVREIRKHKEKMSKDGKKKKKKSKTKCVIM
T1 sequence (P01116 1-188 isoform P01116-2): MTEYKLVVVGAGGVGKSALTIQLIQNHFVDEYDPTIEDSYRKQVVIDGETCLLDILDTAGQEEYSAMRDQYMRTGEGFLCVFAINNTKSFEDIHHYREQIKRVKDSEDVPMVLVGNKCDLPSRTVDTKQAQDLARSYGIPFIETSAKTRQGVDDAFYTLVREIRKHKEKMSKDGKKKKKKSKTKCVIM
T2 sequence (P01116 1-188 isoform P01116-2 G12D): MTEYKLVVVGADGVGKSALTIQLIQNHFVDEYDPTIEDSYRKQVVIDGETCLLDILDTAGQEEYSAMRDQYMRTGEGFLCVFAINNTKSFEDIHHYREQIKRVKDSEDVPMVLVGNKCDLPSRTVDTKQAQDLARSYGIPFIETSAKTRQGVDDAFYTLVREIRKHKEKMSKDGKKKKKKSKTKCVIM

With `CCc1c(F)ccc2cc(O)cc(-c3ncc4c(N5CCC[C@@](C)(N)C5)nc(OC[C@@]56CCCN5[C@H](COC(=O)N5CCC7(CC5)CC(N5CCC(c8ccc9c(c8)n(C)c(=O)n9C8CCC(=O)NC8=O)CC5)C7)CC6)nc4c3F)c12` (stereo partly drawn) [Compound 479, ((3S,7aS)-7a-(((4-((R)-3-amino-3-methylpiperidin-1-yl)-7-(8-ethyl-7-fluoro-3-hydroxynaphthalen-1-yl)-8-fluoropyrido[4,3-d]pyrimidin-2-yl)oxy)methyl)hexahydro-1H-pyrrolizin-3-yl)methyl 2-(4-(1-(2,6-dioxopiperidin-3-yl)-3-methyl-2-oxo-2,3-dihydro-1H-benzo[d]imidazol-5-yl)piperidin-1-yl)-7-azaspiro[3.5]nonane-7-carboxylate], the DC50 is ≥ 0.01 µM on KRAS, > 0.1 µM on KRAS G12D (setting [1]) and > 0.1 µM at KRAS G12V.

On to `CCc1c(F)ccc2cc(O)cc(-c3ncc4c(N5CCC[C@@](C)(O)C5)nc(OC[C@@]56CCCN5[C@H](COC(=O)NC5CCN(CC7CCN(c8ccc9c(c8)n(C)c(=O)n9C8CCC(=O)NC8=O)CC7)CC5)CC6)nc4c3F)c12` (stereo partly drawn) [Compound 428, ((3S,7aS)-7a-(((7-(8-ethyl-7-fluoro-3-hydroxynaphthalen-1-yl)-8-fluoro-4-((R)-3-hydroxy-3-methylpiperidin-1-yl)pyrido[4,3-d]pyrimidin-2-yl)oxy)methyl)hexahydro-1H-pyrrolizin-3-yl)methyl (1-((1-(1-(2,6-dioxopiperidin-3-yl)-3-methyl-2-oxo-2,3-dihydro-1H-benzo[d]imidazol-5-yl)piperidin-4-yl)methyl)piperidin-4-yl)carbamate], for which the DC50 was 0.001 to 0.01 µM at KRAS, < 0.1 µM at KRAS G12D (class symbols) and 0.01 to 0.1 µM on KRAS G12V.

As to `C#Cc1c(F)ccc2cc(O)cc(-c3ncc4c(N5CCCC(F)(F)C5)nc(OC[C@]56CCCN5[C@H](COC(=O)N5CCC(CN7CCC(c8ccc9c(c8)n(C)c(=O)n9C8CCC(=O)NC8=O)CC7)CC5)CC6)nc4c3F)c12` (stereo partly drawn) [Compound 431, ((3S,7aR)-7a-(((4-(3,3-difluoropiperidin-1-yl)-7-(8-ethynyl-7-fluoro-3-hydroxynaphthalen-1-yl)-8-fluoropyrido[4,3-d]pyrimidin-2-yl)oxy)methyl)hexahydro-1H-pyrrolizin-3-yl)methyl 4-((4-(1-(2,6-dioxopiperidin-3-yl)-3-methyl-2-oxo-2,3-dihydro-1H-benzo[d]imidazol-5-yl)piperidin-1-yl)methyl)piperidine-1-carboxylate], the DC50 at KRAS is 0.001 to 0.01 µM; on KRAS G12D (setting [1]), > 0.1 µM; on KRAS G12V, < 0.01 µM.

Turning to `CCc1c(F)ccc2cc(O)cc(-c3ncc4c(N5CCCCC5)nc(OC[C@@]56CCCN5[C@H](COC(=O)N5CCC7(CC5)CC(N5CCC(c8ccc9c(c8)n(C)c(=O)n9C8CCC(=O)NC8=O)CC5)C7)CC6)nc4c3F)c12` (stereo partly drawn) [Compound 367, ((3S,7aS)-7a-(((7-(8-ethyl-7-fluoro-3-hydroxynaphthalen-1-yl)-8-fluoro-4-(piperidin-1-yl)pyrido[4,3-d]pyrimidin-2-yl)oxy)methyl)hexahydro-1H-pyrrolizin-3-yl)methyl 2-(4-(1-(2,6-dioxopiperidin-3-yl)-3-methyl-2-oxo-2,3-dihydro-1H-benzo[d]imidazol-5-yl)piperidin-1-yl)-7-azaspiro[3.5]nonane-7-carboxylate], the DC50 at KRAS is < 0.001 µM; on KRAS G12D (class symbols) it was < 0.1 µM; at KRAS G12V, < 0.01 µM.

In the case of `C#Cc1c(F)ccc2cc(O)cc(-c3ncc4c(N5CCCCC5)nc(OC[C@@]56CCCN5[C@H](COC(=O)N5CCC(CN7CCC(c8ccc9c(c8)n(C)c(=O)n9C8CCC(=O)NC8=O)CC7)CC5)CC6)nc4c3F)c12` (stereo partly drawn) [Compound 122, ((3S,7aS)-7a-(((7-(8-Ethynyl-7-fluoro-3-hydroxynaphthalen-1-yl)-8-fluoro-4-(piperidin-1-yl)pyrido[4,3-d]pyrimidin-2-yl)oxy)methyl)hexahydro-1H-pyrrolizin-3-yl)methyl4-((4-(1-(2,6-dioxopiperidin-3-yl)-3-methyl-2-oxo-2,3-dihydro-1H-benzo[d]imidazol-5-yl)piperidin-1-yl)methyl) piperidine-1-carboxylate], the DC50 at KRAS was < 0.001 µM; at KRAS G12D (class symbols), < 0.1 µM; at KRAS G12V, < 0.01 µM. Further, on KRAS G12D (class symbols), the Dmax was > 50%.

With `CCc1c(F)ccc2cc(O)cc(-c3ncc4c(N5CCC[C@@](C)(O)C5)nc(OC[C@]56CCCN5[C@H](COC(=O)N5CCC(N7CCC(c8ccc9c(c8)n(C)c(=O)n9C8CCC(=O)NC8=O)C7)CC5)CC6)nc4c3F)c12` (stereo partly drawn) [Compound 337, ((3S,7aR)-7a-(((7-(8-ethyl-7-fluoro-3-hydroxynaphthalen-1-yl)-8-fluoro-4-((R)-3-hydroxy-3-methylpiperidin-1-yl)pyrido[4,3-d]pyrimidin-2-yl)oxy)methyl)hexahydro-1H-pyrrolizin-3-yl)methyl 4-(3-(1-(2,6-dioxopiperidin-3-yl)-3-methyl-2-oxo-2,3-dihydro-1H-benzo[d]imidazol-5-yl)pyrrolidin-1-yl)piperidine-1-carboxylate], the DC50 is 0.001 to 0.01 µM at KRAS, < 0.1 µM on KRAS G12D (class symbols) and 0.01 to 0.1 µM on KRAS G12V.

As to `C#Cc1c(F)ccc2cc(O)cc(-c3ncc4c(N5CCC[C@@](C)(O)C5)nc(OC[C@@]56CCCN5[C@H](COC(=O)N5CCC7(CC5)CC(N5CCC(c8ccc9c(c8)n(C)c(=O)n9C8CCC(=O)NC8=O)CC5)C7)CC6)nc4c3F)c12` (stereo partly drawn) [Compound 158, ((3S,7aS)-7a-(((7-(8-Ethynyl-7-fluoro-3-hydroxynaphthalen-1-yl)-8-fluoro-4-((R)-3-hydroxy-3-methylpiperidin-1-yl)pyrido[4,3-d]pyrimidin-2-yl)oxy)methyl)hexahydro-1H-pyrrolizin-3-yl)methyl-2-(4-(1-(2,6-dioxopiperidin-3-yl)-3-methyl-2-oxo-2,3-dihydro-1H-benzo[d]imidazol-5-yl)piperidin-1-yl)-7-azaspiro[3.5]nonane-7-carboxylate], the DC50 at KRAS is < 0.001 µM; on KRAS G12D (class symbols), < 0.1 µM; on KRAS G12V it was < 0.01 µM.

Regarding `C#Cc1c(F)ccc2cc(O)cc(-c3ncc4c(N5CCC[C@@](C)(O)C5)nc(OCC5(CN6CCC7(CC6)CC(N6CCN(c8ccc9c(c8)n(C)c(=O)n9C8CCC(=O)NC8=O)CC6)C7)CC5)nc4c3F)c12` (some centres unmarked) [Compound 56], the figures for the DC50 at KRAS, at KRAS G12D (class symbols) and on KRAS G12V were < 0.001 µM, < 0.1 µM and < 0.01 µM, respectively.

Take `CCc1c(F)ccc2cc(O)cc(-c3ncc4c(N5CCC[C@@](C)(O)C5)nc(OC[C@@]56CCCN5[C@H](COC(=O)Nc5ccc(N7CCC(c8ccc9c(c8)n(C)c(=O)n9C8CCC(=O)NC8=O)CC7)cc5)CC6)nc4c3F)c12` (stereo partly drawn) [Compound 451, ((3S,7aS)-7a-(((7-(8-ethyl-7-fluoro-3-hydroxynaphthalen-1-yl)-8-fluoro-4-((R)-3-hydroxy-3-methylpiperidin-1-yl)pyrido[4,3-d]pyrimidin-2-yl)oxy)methyl)hexahydro-1H-pyrrolizin-3-yl)methyl (4-(4-(1-(2,6-dioxopiperidin-3-yl)-3-methyl-2-oxo-2,3-dihydro-1H-benzo[d]imidazol-5-yl)piperidin-1-yl)phenyl)carbamate]: the DC50 at KRAS was < 0.001 µM; at KRAS G12D (class symbols), < 0.1 µM; on KRAS G12V, < 0.01 µM.

On to `C#Cc1c(F)ccc2cc(O)cc(-c3ncc4c(N5CCCC(C#N)CC5)nc(OC[C@@]56CCCN5[C@H](COC(=O)N5CCC(CN7CCC(c8ccc9c(c8)n(C)c(=O)n9C8CCC(=O)NC8=O)CC7)CC5)CC6)nc4c3F)c12` (stereo partly drawn) [Compound 110, ((3S,7aS)-7a-(((4-(4-Cyanoazepan-1-yl)-7-(8-ethynyl-7-fluoro-3-hydroxynaphthalen-1-yl)-8-fluoropyrido[4,3-d]pyrimidin-2-yl)oxy)methyl)hexahydro-1H-pyrrolizin-3-yl)methyl 4-((4-(1-(2,6-dioxopiperidin-3-yl)-3-methyl-2-oxo-2,3-dihydro-1H-benzo[d]imidazol-5-yl)piperidin-1-yl)methyl) piperidine-1-carboxylate], for which the DC50 on KRAS is 0.001 to 0.01 µM; on KRAS G12D (class symbols), < 0.1 µM; on KRAS G12V, < 0.01 µM. Besides, the Dmax on KRAS G12D (class symbols) is > 50%.

For the origin of these results see patent publication US12599672B2, “KRAS proteolysis targeting chimeras” (PAQ Therapeutics Inc., priority 2023, dated 2026).
